From patent US9440964B2, “Pesticidal compositions and processes related thereto” (Dow AgroSciences LLC, priority 2011, dated 2016)

Assays:
Type in all cases: in vivo
[1] = system: Green Peach Aphid (GPA) (Myzus persica); assay: Bioassay on Green Peach Aphid (GPA), cabbage seedling foliar spray; settings: 72 h, corrected % control (Abbott), 200 ppm foliar spray on cabbage, three days, read-out: Rating GPA
Procedure: Certain molecules disclosed in this document were tested against GPA using procedures described in the following example. In the reporting of the results, the “GPA Rating Table” was used (See Table Section).
Cabbage seedlings grown in 3-inch pots, with 2-3 small (3-5 cm) true leaves, were used as test substrate. The seedlings were infested with 20-50 GPA (wingless adult and nymph stages) one day prior to chemical application. Four pots with individual seedlings were used for each treatment. Test compounds (2 mg) were dissolved in 2 mL of acetone/MeOH (1:1) solvent, forming stock solutions of 1000 ppm test compound. The stock solutions were diluted 5× with 0.025% Tween 20 in H2O to obtain the solution at 200 ppm test compound. A hand-held aspirator-type sprayer was used for spraying a solution to both sides of […] leaves until runoff. Reference plants (solvent check) were sprayed with the diluent only containing 20% by volume of acetone/MeOH (1:1) solvent. Treated plants were held in a holding room for three days at approximately 25° C. and ambient relative humidity (RH) prior to grading. Evaluation was conducted by counting the number of live aphids per plant under a microscope. Percent Control was measured by using Abbott's correction formula (W. S. Abbott, “A Method of Computing the Effectiveness of an Insecticide” J. Econ. Entomol. 18 (1925), pp. 265-267) as follows. Corrected % Control=100*(X−Y)/X • where • X=No. of live aphids on solvent check plants and • Y=No. of live aphids on treated plants
(§1) The results are indicated in the table entitled “Table ABC: Biological Results” (See Table Section).

[2] = system: Yellow Fever Mosquito YFM (Aedes aegypti); assay: Bioassay on Yellow Fever Mosquito (YFM) larvae, 96-well plate; settings: mortality of about 1 day-old larvae, scored after 3 days
Procedure: Certain molecules disclosed in this document were tested against YFM using procedures described in the following paragraph. In the reporting of the results, the “YFM Rating Table” was used (See Table Section).
Master plates containing 400 μg of a molecule dissolved in 100 μL of dimethyl sulfoxide (DMSO) (equivalent to a 4000 ppm solution) are used. A master plate of assembled molecules contains 15 μL per well. To this plate, 135 μL of a 90:10 water:acetone mixture is added to each well. A robot (Biomek® NXP Laboratory Automation Workstation) is programmed to dispense 15 μL aspirations from the master plate into an empty 96-well shallow plate (“daughter” plate). There are 6 reps (“daughter” plates) created per master. The created daughter plates are then immediately infested with YFM larvae.
The day before plates are to be treated, mosquito eggs are placed in Millipore water containing liver powder to begin hatching (4 g. into 400 ml). After the daughter plates are created using the robot, they are infested with 220 μL of the liver powder/larval mosquito mixture (about 1 day-old larvae). After plates are infested with mosquito larvae, a non-evaporative lid is used to cover the plate to reduce drying. Plates are held at room temperature for 3 days prior to grading. After 3 days, each well is observed and scored based on mortality.
as §1

BAW (Spodoptera exigua) = assay: Bioassay on Beet Armyworm (BAW), 128-well diet tray; settings: Spodoptera exigua, 168 h; percent mortality, second instar larvae, 50 μg/cm^2 on diet, five to seven days; read-out: Rating BAW
Outline: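 Second-instar Spodoptera exigua larvae (one to five per well) placed on artificial diet surface-treated with 50 μg/cm^2 compound in 90:10 acetone-water, dried, eight wells per compound. Held 5–7 days at 25 °C, 14:10 light-dark; percent mortality averaged across wells.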

CEW (Helicoverpa zea) = assay: Bioassay on Corn Earworm (CEW), 128-well diet tray; settings: Helicoverpa zea, 168 h; percent mortality, second instar larvae, 50 μg/cm^2 on diet, five to seven days; read-out: Rating CEW
Outline: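 Helicoverpa zea (corn earworm) was tested in a 128-well diet tray. Each 3 mL well received one to five second instar larvae on diet treated with the test material in an acetone-water mixture, applied to eight wells and dried. Trays were sealed with clear self-adhesive covers, kept at 25° C., 14:10 light-dark for five to seven days, then percent mortality was averaged across eight wells.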

## CCc1ccccc1N/C(S)=N/C(=O)Nc1ccc(-c2ncn(-c3ccc(OC(F)(F)F)cc3)n2)cc1 [Molecule A46]
[1]
  pest or weed control at 200 ppm: 0 to 80%
[2]
  Rating YFM: A (80-100)
BAW (Spodoptera exigua)
  pest or weed control at 50 µg/cm2: 50 to 100%
CEW (Helicoverpa zea)
  pest or weed control at 50 µg/cm2: 50 to 100%
